We go through 2 compounds from patent publication US8158587B2, “Compound having histone deacetylase-inhibiting activity, and pharmaceutical composition comprising the compound as an active ingredient” (Kyushu Institute of Technology, priority 2006, dated 2012).

For one experiment, the target named is T1, human HDAC4 (Homo sapiens, UniProt P56524).
T1 construct: made in house; host or cells: 293T cells (transient transfection, anti-FLAG immunoprecipitation, FLAG peptide elution)
As to the kind of experiment: HDAC-inhibiting activity, coumarin-labeled acetylated histone peptide assay. It is filed as biochemical. The settings on record: human HDAC4 from transfected 293T cells; 37° C., 30 minutes; read-out: HDAC-inhibiting activity IC50 HDAC4.

The test system of experiment [1] is brain tumor cell line SF-539. As to the kind of experiment: Human cancer cell line panel, proliferation (sulforhodamine B). It counts as cell-based. To be noted: SF-539, 2 days of cultivation; read-out: 50% inhibitory concentration, proliferation. An excerpt: (§1) The characteristics of the human cancer cell proliferation-inhibiting activity of the compounds of the present invention were examined by the “method of evaluating the mechanisms of action of compounds using a panel of human cancer cell lines” as proposed by Yamori et al. (cf. Gan to Kagaku Ryoho (Cancer and Chemotherapy) 29 Suppl. II (2002) and Cancer Chemother. Pharmacol. 52 Suppl. I, S74-79 (2003)).
(§2) This system includes […] (7 lung cancer, 6 stomach cancer, 5 colon cancer, 5 ovarian cancer, 6 brain tumor, […], 2 kidney cancer and 2 prostate cancer cell lines as well as one melanoma line) and the method comprises measuring the in vitro drug susceptibilities of those cancer cell lines and expressing the differences in drug susceptibility among the respective cancer cell lines as a fingerprint. […] By utilizing this property, it is possible to estimate the mechanisms of action of a compound. The above method is also characterized in that an anticancer substance showing new and unique mechanisms of action different from those of the existing anticancer agents can be selected.
(§3) Cancer cells of each cell line are sowed onto a 96-well plate, a sample solution is added on the next day and, after 2 days of cultivation, the cell proliferation is measured by colorimetry using sulforhodamine B. The deviations in effective concentration for the respective cancer cell lines from the mean effective drug concentration for the 39 cancer cell lines subjected to measurement are calculated and shown in the form a fingerprint.

The subject of experiment [2] is brain tumor cell line SNB-75. The description is as above. To be noted: SNB-75, 2 days of cultivation; read-out: 50% inhibitory concentration, proliferation. It counts as cell-based.
Source text: as §1, §2, §3

In experiment [3] the test system is breast cancer cell line BSY-1. Described as above. The settings on record: BSY-1, 2 days of cultivation; read-out: 50% inhibitory concentration, proliferation. It is filed as cell-based.
Source text: as §1, §2, §3

The subject of experiment [4] is colon cancer cell line HCC2998. Described as above. It counts as cell-based. The settings on record: HCC2998, 2 days of cultivation; read-out: 50% inhibitory concentration, proliferation.
Source text: as §1, §2, §3

The test system of experiment [5] is colon cancer cell line HT-29. The description is as above. It is filed as cell-based. To be noted: HT-29, 2 days of cultivation; read-out: 50% inhibitory concentration, proliferation.
Source text: as §1, §2, §3

The test system of experiment [6] is kidney cancer cell line RXF-631L. The experiment is described as above. To be noted: 2 days of cultivation, read-out: 50% inhibitory concentration, proliferation. It counts as cell-based.
Source text: as §1, §2, §3

Experiment [7] concerns lung cancer cell line A549. The description is as above. It counts as cell-based. The settings on record: A549, 2 days of cultivation; read-out: 50% inhibitory concentration, proliferation.
Source text: as §1, §2, §3

The test system of experiment [8] is lung cancer cell line DMS114. The experiment is described as above. It counts as cell-based. The settings on record: DMS114, 2 days of cultivation; read-out: 50% inhibitory concentration, proliferation.
Source text: as §1, §2, §3

For experiment [9], the system named is lung cancer cell line NCI-H226. Described as above. It counts as cell-based. To be noted: NCI-H226, 2 days of cultivation; read-out: 50% inhibitory concentration, proliferation.
Source text: as §1, §2, §3

For experiment [10], the system named is lung cancer cell line NCI-H23. Described as above. It is filed as cell-based. To be noted: NCI-H23, 2 days of cultivation; read-out: 50% inhibitory concentration, proliferation.
Source text: as §1, §2, §3

Experiment [11] concerns lung cancer cell line NCI-H460. The description is as above. It counts as cell-based. To be noted: NCI-H460, 2 days of cultivation; read-out: 50% inhibitory concentration, proliferation.
Source text: as §1, §2, §3

The subject of experiment [12] is lung cancer cell line NCI-H522. The description is as above. It is filed as cell-based. The settings on record: NCI-H522, 2 days of cultivation; read-out: 50% inhibitory concentration, proliferation.
Source text: as §1, §2, §3

Experiment [13] has as its system melanoma cell line LOX-IMVI. The experiment is described as above. To be noted: 2 days of cultivation, read-out: 50% inhibitory concentration, proliferation. It is filed as cell-based.
Source text: as §1, §2, §3

In experiment [14] the test system is ovarian cancer cell line OVCAR-5. The experiment is described as above. It counts as cell-based. To be noted: OVCAR-5, 2 days of cultivation; read-out: 50% inhibitory concentration, proliferation.
Source text: as §1, §2, §3

The subject of experiment [15] is ovarian cancer cell line OVCAR-8. The experiment is described as above. It counts as cell-based. The settings on record: OVCAR-8, 2 days of cultivation; read-out: 50% inhibitory concentration, proliferation.
Source text: as §1, §2, §3

Experiment [16] concerns prostate cancer cell line DU-145. The description is as above. It is filed as cell-based. To be noted: DU-145, 2 days of cultivation; read-out: 50% inhibitory concentration, proliferation.
Source text: as §1, §2, §3

The test system of experiment [17] is stomach cancer cell line MKN1. Described as above. It counts as cell-based. The settings on record: MKN1, 2 days of cultivation; read-out: 50% inhibitory concentration, proliferation.
Source text: as §1, §2, §3

pIC50: −log10 of the molar value.

T1 sequence (P56524 whole entry): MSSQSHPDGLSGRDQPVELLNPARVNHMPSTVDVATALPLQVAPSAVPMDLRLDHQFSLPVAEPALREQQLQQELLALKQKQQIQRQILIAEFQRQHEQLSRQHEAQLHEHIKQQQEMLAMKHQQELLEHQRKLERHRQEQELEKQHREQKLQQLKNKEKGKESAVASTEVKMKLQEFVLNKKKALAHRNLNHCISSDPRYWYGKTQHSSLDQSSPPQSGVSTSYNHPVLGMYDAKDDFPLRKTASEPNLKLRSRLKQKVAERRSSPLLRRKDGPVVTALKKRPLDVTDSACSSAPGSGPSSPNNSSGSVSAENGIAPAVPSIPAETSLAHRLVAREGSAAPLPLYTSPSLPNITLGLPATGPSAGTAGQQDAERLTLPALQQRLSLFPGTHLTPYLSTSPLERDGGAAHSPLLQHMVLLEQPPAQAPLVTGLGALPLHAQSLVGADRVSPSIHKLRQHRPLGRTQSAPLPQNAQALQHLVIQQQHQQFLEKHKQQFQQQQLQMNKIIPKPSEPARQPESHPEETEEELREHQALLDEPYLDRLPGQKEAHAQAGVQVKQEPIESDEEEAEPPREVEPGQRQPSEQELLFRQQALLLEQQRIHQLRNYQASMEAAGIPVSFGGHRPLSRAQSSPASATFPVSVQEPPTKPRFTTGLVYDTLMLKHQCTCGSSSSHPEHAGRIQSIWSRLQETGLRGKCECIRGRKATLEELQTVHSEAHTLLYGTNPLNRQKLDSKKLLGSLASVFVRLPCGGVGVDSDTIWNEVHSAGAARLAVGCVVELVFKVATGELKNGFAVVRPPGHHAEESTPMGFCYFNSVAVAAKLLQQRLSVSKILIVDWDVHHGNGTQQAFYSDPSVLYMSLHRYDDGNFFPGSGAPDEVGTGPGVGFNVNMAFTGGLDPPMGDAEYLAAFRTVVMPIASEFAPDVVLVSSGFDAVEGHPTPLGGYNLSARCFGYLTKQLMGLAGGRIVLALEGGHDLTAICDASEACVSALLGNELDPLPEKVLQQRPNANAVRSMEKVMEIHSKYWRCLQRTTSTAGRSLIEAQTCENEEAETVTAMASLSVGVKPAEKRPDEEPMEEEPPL
T1 sequence (O15379 whole entry, further chain): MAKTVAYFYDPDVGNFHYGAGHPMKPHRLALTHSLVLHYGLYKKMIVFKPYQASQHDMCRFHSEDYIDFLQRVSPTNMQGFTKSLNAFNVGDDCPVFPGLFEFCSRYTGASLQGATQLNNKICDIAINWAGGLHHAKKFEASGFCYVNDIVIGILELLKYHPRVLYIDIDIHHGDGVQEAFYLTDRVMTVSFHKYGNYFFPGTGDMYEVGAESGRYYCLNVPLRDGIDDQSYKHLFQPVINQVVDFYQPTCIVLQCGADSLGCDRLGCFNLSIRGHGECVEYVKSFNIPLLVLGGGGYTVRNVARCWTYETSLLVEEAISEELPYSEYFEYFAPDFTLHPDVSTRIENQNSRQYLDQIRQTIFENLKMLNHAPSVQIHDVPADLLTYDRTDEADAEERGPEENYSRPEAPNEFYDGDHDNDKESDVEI

With `CC1(C)NC(=O)[C@H](CCCCCSCc2ccncc2)NC(=O)[C@H]2CCCN2C(=O)[C@H](Cc2ccccc2)NC1=O` [Ky-26, cyclo(-L-Am7(4-pyridylmethyl)-Aib-L-Phe-D-Pro-)], the pIC50 was 7.60 on human HDAC4; no less than 7.00 in experiment [1]; no less than 7.00 in [2]; no less than 7.00 in [3]; no less than 7.00 in experiment [4]; no less than 7.00 in experiment [5]. The pIC50 in experiment [6], in experiment [7], in experiment [8], in experiment [9], in experiment [10] and in experiment [11] was no less than 7.00 throughout. The pIC50 in [12] is no less than 8.00; in [13] it was no less than 7.00; in experiment [14], no less than 7.00; in experiment [15], no less than 7.00; in experiment [16], no less than 7.00; in experiment [17], no less than 7.00.
Take `CC(=O)CSCCCCC[C@@H]1NC(=O)[C@H]2CCCN2C(=O)[C@H](Cc2ccccc2)NC(=O)C(C)(C)NC1=O` [Ky-72, cyclo(-L-Am7(acetonyl)-Aib-L-Phe-D-Pro-)]: the pIC50 at human HDAC4 was 5.80; in experiment [1] it was no less than 7.00; in [2], no less than 7.00; in experiment [3] it was no less than 7.00; in experiment [4] it was no less than 7.00; in [5] it was no less than 7.00. Also, the pIC50 in experiment [6], in experiment [7], in experiment [8], in experiment [9], in experiment [10] and in experiment [11] was no less than 7.00 in each case. Also, the pIC50 in experiment [12] is no less than 8.00; in experiment [13] it was no less than 7.00; in experiment [14] it was no less than 7.00; in [15], no less than 7.00; in experiment [16], no less than 7.00; in [17], no less than 7.00.
